This note sets out measurements from patent publication US20230203059A1, “MACROCYCLIC JAK INHIBITOR AND USES THEREOF” (Biopolar Hongye (Guangdong) Pharmaceutical Co. Ltd., priority 2020, published 2023).

Holding throughout (assay type): biochemical
The target in one experiment is TYK2 (Homo sapiens, UniProt P29597). The experiment is described as follows: JAK kinase activity, homogeneous time-resolved fluorescence (TYK2 reaction system). Particulars: ATP 2 μM, TYK2 protein 0.2 ng/μL; read-out: TYK 2 activity. The procedure, abridged: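 Activity read as the 665 nm/615 nm ratio after adding EDTA-containing detection mix with anti-phospho-substrate antibody and XL-615. Beforehand, 0.2 ng/μL TYK2, 2 μM ATP, substrate and compound reacted 1 h in pH 7.0 Hepes buffer with MgCl2 and DTT. IC50 fitted with Hill-slope equation.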
Sequence of TYK2 (P29597 whole entry): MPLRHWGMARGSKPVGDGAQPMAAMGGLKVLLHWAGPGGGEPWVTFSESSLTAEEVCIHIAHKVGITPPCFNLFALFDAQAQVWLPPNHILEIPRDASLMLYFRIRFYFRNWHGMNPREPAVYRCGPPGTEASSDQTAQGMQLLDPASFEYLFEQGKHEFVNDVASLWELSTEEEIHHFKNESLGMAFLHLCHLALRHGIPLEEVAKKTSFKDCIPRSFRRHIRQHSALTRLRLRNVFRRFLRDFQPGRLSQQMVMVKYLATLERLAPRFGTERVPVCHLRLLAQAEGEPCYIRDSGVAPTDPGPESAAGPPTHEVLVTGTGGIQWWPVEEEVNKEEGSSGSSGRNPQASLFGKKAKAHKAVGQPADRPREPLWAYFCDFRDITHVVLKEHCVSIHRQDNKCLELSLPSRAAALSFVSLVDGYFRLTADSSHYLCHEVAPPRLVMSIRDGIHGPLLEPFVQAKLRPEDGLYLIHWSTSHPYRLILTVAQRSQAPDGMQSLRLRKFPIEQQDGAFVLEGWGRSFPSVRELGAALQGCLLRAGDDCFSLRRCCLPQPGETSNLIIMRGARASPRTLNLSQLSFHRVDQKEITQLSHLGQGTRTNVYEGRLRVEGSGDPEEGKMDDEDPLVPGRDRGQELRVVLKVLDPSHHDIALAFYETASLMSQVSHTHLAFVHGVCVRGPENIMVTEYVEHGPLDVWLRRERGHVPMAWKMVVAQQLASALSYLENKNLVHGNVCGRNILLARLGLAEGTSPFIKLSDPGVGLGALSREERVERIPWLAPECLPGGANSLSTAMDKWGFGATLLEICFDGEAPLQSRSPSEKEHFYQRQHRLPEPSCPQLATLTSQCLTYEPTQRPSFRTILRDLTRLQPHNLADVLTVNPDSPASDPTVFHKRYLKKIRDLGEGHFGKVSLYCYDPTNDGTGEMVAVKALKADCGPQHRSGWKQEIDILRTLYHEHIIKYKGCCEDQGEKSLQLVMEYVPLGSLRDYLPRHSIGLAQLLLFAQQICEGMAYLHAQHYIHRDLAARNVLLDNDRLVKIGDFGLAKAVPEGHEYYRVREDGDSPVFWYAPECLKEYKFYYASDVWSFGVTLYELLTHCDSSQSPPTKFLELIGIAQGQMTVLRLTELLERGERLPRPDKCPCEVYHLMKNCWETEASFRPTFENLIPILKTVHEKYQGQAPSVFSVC

The next experiment addresses T1, JAK3 (Homo sapiens, UniProt P52333).
T1 sequence (P52333 1-1124): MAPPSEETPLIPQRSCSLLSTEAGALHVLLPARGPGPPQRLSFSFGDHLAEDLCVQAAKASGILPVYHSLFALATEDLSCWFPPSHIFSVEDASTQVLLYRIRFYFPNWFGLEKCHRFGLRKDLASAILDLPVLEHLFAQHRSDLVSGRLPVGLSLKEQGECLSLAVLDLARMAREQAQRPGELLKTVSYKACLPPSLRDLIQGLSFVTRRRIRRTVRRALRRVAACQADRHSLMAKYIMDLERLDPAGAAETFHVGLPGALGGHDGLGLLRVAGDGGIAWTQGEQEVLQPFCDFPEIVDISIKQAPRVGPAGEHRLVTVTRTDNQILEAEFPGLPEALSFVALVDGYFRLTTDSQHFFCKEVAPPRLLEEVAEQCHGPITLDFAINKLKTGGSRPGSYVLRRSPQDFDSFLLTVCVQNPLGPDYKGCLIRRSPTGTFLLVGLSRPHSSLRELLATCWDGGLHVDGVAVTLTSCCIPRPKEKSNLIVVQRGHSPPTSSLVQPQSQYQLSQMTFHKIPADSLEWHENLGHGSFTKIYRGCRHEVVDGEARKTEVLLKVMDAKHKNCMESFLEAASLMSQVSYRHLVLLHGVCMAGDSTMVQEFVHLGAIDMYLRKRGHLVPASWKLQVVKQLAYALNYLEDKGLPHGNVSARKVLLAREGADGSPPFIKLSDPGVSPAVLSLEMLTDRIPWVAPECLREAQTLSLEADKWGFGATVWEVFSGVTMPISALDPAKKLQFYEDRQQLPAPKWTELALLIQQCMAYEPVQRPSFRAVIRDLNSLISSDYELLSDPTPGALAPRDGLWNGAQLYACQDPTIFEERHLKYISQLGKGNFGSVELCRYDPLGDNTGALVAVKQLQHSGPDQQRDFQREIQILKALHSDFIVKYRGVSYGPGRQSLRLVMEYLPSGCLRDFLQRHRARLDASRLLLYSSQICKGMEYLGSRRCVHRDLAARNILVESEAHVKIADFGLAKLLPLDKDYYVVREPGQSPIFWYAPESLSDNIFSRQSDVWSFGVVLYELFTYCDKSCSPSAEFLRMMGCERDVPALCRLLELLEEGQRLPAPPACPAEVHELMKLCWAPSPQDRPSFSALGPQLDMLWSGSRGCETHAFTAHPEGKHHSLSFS
The experiment is described as follows: JAK kinase activity, homogeneous time-resolved fluorescence (JAK3 reaction system). The conditions noted are these: ATP 2 μM, JAK3 protein 0.04 ng/μL; read-out: JAK 3 activity.

The target of another experiment is JAK1 (Homo sapiens, UniProt P23458). Kind of experiment: JAK kinase activity, homogeneous time-resolved fluorescence (JAK1 reaction system). Particulars: ATP 2 μM, JAK1 protein 0.2 ng/μL; read-out: JAK 1 activity. The method, boiled down: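 Kinase activity read as the 665 nm/615 nm time-resolved fluorescence ratio (320 nm excitation) after EDTA-containing antibody and XL-615 addition. Reaction ran 1 h at pH 7.0 (Hepes, MgCl2, DTT) with 0.2 ng/μL JAK1 and ATP at 2 μM. IC50 derived by Hill-slope fit.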
Sequence of JAK1 (P23458 whole entry): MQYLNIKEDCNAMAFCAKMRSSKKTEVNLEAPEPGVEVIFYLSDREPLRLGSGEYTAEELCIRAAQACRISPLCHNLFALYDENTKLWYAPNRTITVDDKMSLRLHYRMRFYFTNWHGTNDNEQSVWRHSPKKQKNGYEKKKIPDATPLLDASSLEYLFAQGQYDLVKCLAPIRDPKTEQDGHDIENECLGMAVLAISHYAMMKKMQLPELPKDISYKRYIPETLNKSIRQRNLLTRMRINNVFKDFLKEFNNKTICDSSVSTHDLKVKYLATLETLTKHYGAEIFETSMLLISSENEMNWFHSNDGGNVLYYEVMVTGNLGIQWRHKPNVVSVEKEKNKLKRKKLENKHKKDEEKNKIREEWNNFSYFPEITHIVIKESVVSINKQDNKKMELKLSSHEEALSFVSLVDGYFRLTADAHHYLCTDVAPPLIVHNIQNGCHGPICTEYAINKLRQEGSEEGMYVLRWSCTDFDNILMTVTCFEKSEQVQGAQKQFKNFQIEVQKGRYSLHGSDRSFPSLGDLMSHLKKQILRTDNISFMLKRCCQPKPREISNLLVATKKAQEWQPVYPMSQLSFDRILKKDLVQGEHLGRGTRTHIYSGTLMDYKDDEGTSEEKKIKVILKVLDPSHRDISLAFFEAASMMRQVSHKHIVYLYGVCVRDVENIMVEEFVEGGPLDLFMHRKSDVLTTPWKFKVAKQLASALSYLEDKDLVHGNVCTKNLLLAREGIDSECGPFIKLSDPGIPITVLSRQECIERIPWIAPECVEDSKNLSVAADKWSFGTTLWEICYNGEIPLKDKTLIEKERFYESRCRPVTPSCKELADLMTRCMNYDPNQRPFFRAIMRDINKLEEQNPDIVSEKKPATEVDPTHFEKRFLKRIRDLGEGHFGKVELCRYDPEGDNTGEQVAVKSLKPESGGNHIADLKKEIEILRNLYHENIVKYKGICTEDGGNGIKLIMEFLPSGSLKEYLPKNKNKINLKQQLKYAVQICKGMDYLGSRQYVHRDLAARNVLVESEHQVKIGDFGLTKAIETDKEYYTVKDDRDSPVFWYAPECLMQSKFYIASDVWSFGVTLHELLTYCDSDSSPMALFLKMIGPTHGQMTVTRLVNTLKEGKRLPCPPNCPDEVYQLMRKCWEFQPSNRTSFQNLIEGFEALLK

In the next experiment the target is JAK2 (Homo sapiens, UniProt O60674). Kind of experiment: JAK kinase activity, homogeneous time-resolved fluorescence (JAK2 reaction system). Particulars: ATP 2 μM, JAK2 protein 0.01 ng/μL. The method, boiled down:
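IC50 derived by Hill-equation fit of the 665/615 nm time-resolved fluorescence ratio after EDTA-containing detection mix with anti-phosphosubstrate antibody. Preceding 1 h reaction contained 2 μM ATP, 0.01 ng/μL JAK2, substrate, 50 mM Hepes pH 7.0, 5 mM MgCl2, 1 mM DTT.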

Sequence of JAK2 (O60674 whole entry): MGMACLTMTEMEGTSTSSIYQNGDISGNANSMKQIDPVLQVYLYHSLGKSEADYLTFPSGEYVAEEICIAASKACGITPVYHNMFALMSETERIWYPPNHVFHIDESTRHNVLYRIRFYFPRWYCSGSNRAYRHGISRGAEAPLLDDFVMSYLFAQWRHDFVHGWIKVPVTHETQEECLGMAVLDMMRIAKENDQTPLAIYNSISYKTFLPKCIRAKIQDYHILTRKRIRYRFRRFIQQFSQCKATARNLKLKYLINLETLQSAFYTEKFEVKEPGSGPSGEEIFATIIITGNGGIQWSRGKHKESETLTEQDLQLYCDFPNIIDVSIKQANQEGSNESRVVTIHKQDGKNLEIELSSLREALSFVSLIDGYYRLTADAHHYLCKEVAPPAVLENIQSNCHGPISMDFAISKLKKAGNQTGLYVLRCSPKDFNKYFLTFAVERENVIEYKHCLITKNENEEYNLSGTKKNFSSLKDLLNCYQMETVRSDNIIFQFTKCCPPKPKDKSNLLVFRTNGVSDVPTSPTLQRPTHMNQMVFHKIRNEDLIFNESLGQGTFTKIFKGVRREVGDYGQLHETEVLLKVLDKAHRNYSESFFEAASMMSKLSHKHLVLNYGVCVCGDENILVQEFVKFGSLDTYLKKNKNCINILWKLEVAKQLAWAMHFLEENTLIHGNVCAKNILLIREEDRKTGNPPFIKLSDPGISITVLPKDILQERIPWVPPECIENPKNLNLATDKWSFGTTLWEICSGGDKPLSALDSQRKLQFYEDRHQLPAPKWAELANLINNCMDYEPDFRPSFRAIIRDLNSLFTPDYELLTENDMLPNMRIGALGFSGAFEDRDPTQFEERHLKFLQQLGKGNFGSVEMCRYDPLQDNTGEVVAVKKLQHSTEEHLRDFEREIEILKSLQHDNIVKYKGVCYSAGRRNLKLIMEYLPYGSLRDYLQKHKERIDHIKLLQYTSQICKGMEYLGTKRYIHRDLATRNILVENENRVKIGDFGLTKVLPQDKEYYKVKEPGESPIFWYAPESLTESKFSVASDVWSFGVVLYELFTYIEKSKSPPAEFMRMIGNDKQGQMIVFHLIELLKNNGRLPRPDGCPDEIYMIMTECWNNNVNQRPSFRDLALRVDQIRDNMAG

As for `COc1cccc(F)c1COc1ccc2cc1COCCCCNC(=O)c1ccc(c(N)c1)-c1ccnc(n1)N2` [Example 172, 1^2-amino-4^4-((2-fluoro-6-methoxy-benzyl)oxy)-6-oxa-3,11-diaza-2(4,2)-pyrimidina-1(1,4),4(1,3)-di-benzenacyclododecaphan-12-one], the IC50 at TYK2 was 1000 to 10000 nM; at JAK3, 11 to 100 nM; at JAK1 it was 1000 to 10000 nM; on JAK2, 101 to 1000 nM.
In the case of `COc1cc(F)ccc1COc1ccc2cc1COCCCCNC(=O)c1ccc(c(N)c1)-c1ccnc(n1)N2` [Example 173, 1^2-amino-4^4-((4-fluoro-2-methoxy-benzyl)oxy)-6-oxa-3,11-diaza-2(4,2)-pyrimidina-1(1,4),4(1,3)-di-benzenacyclododecaphan-12-one], the IC50 at TYK2 was 1000 to 10000 nM; at JAK3, 11 to 100 nM; on JAK1 it was 1000 to 10000 nM; against JAK2 it was 101 to 1000 nM.
With `CC1CCNC(=O)c2ccc(c([N+](=O)[O-])c2)-c2ccnc(n2)Nc2ccc(OCC3COC3)c(c2)COC1` (stereo not shown) [Example 174, 8-methyl-1^2-nitro-4^4-(oxetan-3-yl-methoxy)-6-oxa-3-diaza-2(4,2)-py-rimidina-1(1,4),4(1,3)-dibenzena-cyclododecaphan-12-one], the IC50 on TYK2 was above 10000 nM; on JAK3 it was 1000 to 10000 nM; on JAK1, 1000 to 10000 nM; at JAK2, 1000 to 10000 nM.
As for `CC1CCNC(=O)c2ccc(c(N)c2)-c2ccnc(n2)Nc2ccc(OCC3COC3)c(c2)COC1` (stereo not shown) [Example 175], the IC50 at TYK2 was in the range of 1000 to 10000 nM; on JAK3, 11 to 100 nM; on JAK1, 1000 to 10000 nM; at JAK2 it was 101 to 1000 nM.
Turning to `CC1(C)CCNC(=O)c2ccc(c(N)c2)-c2ccnc(n2)Nc2ccc(OC3CC3)c(c2)COC1` [Example 176, 1^2-amino-4^4-cyclopropoxy-8,8-di-methyl-6-oxa-3,11-diaza-2(4,2)-py-rimidina-1(1,4),4(1,3)-dibenzena-cyclododecaphan-12-one], the IC50 at TYK2 was above 10000 nM; on JAK3, 1000 to 10000 nM; at JAK1, above 10000 nM; at JAK2, above 10000 nM.
As for `COc1ccc(F)cc1COc1ccc2cc1COCCCCNC(=O)c1ccc(c(N)c1)-c1ccnc(n1)N2` [Example 177, 1^2-amino-4^4-((5-fluoro-2-methoxy-benzyl)oxy)-6-oxa-3,11-diaza-2(4,2)-pyrimidina-1(1,4),4(1,3)-dibenz-enacyclododecaphan-12-one], the IC50 was above 10000 nM at TYK2, 101 to 1000 nM on JAK3, 1000 to 10000 nM at JAK1 and 1000 to 10000 nM on JAK2.
For the molecule `CC1CCOCc2cc(ccc2OC(C)C)Nc2nccc(n2)-c2ccc(cc2N)C(=O)NC1` (stereo not shown) [Example 178, 1^2-amino-4^4-isopropoxy-9-methyl-6-oxa-3,11-diaza-2(4,2)-pyrimidin-a-1(1,4)4(1,3)-dibenzenacyclododeca-phan-12-one], the IC50 on TYK2 was 101 to 1000 nM; on JAK3, below 10 nM; on JAK1 it was 101 to 1000 nM; on JAK2, 11 to 100 nM.
As to `CN(C)C(=O)C(C)(C)Oc1ccc2cc1COCCCCNC(=O)c1ccc(c(N)c1)-c1ccnc(n1)N2` [Example 179, 2-((1^2-amino-12-oxo-6-oxa-3,11-di-aza-2(4,2)-pyrimidina-1(1,4),4(1,3)-dibenzenacyclododecaphan-4^4-yl)oxy)-N,N-trimethylpropoiona-mide], the IC50 at TYK2 is above 10000 nM; on JAK3, 101 to 1000 nM; at JAK1 it was 1000 to 10000 nM; on JAK2 it was 1000 to 10000 nM.
Consider `C[C@H]1CCOCc2cc(ccc2OC2CC2)Nc2nccc(n2)-c2ccc(cc2N)C(=O)NC1` [Example 180, (S)-1^2-amino-4^4-cyclopropoxy-9-methyl-6-oxa-3,11-diaza-2(4,2)-py-rimidina-1(1,4),4(1,3)-dibenzena-cyclododecaphan-12-one], for which the IC50 at TYK2 lay in the range of 1000 to 10000 nM; at JAK3, 11 to 100 nM; at JAK1, 1000 to 10000 nM; against JAK2, 101 to 1000 nM.
As to `C[C@@H]1CCOCc2cc(ccc2OC2CC2)Nc2nccc(n2)-c2ccc(cc2N)C(=O)NC1` [Example 181, (R)-1^2-amino-4^4-cyclopropxy-9-methyl-6-ox-3,11-diaza-2 (4,2)-pyrimidina-1(1,4),4(1,3)-di-benzenacyclododecaphan-12-one], the IC50 on TYK2 is 101 to 1000 nM; on JAK3, below 10 nM; at JAK1, 101 to 1000 nM; against JAK2, 11 to 100 nM.
Turning to `COc1cccc(F)c1COc1ccc2cc1COCCC(C)CNC(=O)c1ccc(c(N)c1)-c1ccnc(n1)N2` (stereo not shown) [Example 182, 1^2-amino-4^4-((2-fluoro-6-methoxy-benzyl)oxy)-9-methyl-6-oxa-3,11-diaza-2(4,2)-pyrimidina-1(1,4),4(1,3)-dibenzenacyclododecaphan-12-one], the IC50 is 1000 to 10000 nM at TYK2, below 10 nM on JAK3, 1000 to 10000 nM at JAK1 and 101 to 1000 nM at JAK2.
Regarding `COc1cc(F)cc(F)c1COc1ccc2cc1COCCCCNC(=O)c1ccc(c(N)c1)-c1ccnc(n1)N2` [Example 183, 1^2-amino-4^4-((2,4-difluoro-6-meth-oxybenzyl)oxy)-6-oxa-3,11-diaza-2(4,2)-pyrimidina-1(1,4),4(1,3)-di-benzenacyclododecaphan-12-one], the IC50 is 1000 to 10000 nM on TYK2, below 10 nM at JAK3, 1000 to 10000 nM at JAK1 and 101 to 1000 nM against JAK2.
For the molecule `CC1CCOCc2cc(ccc2OC2CCCC2)Nc2nccc(n2)-c2ccc(cc2N)C(=O)NC1` (stereo not shown) [Example 184, 1^2-amino-4^4-(cyclopentoxy)-9-meth-yl-6-oxa-3,11-diaza-2(4,2)-pyrimi-dina-1(1,4),4(1,3)-dibenzenacyclo-dodecaphan-12-one], the IC50 is 1000 to 10000 nM at TYK2, below 10 nM at JAK3, 1000 to 10000 nM on JAK1 and 101 to 1000 nM against JAK2.
Regarding `C[C@@H]1CCOCc2cc(ccc2OC2CCCC2)Nc2nccc(n2)-c2ccc(cc2N)C(=O)NC1` [Example 185, (R)-1-amino-4^4-(cyclopentoxy)-9-methyl-6-oxa-3,11-diaza-2(4,2)-py-rimidina-1(1,4),4(1,3)-dibenzena-cyclododecaphan-12-one], the IC50 is 1000 to 10000 nM at TYK2, 11 to 100 nM at JAK3, 1000 to 10000 nM at JAK1 and 101 to 1000 nM against JAK2.
Consider `COc1cccc(F)c1COc1ccc2cc1COCC[C@@H](C)CNC(=O)c1ccc(c(N)c1)-c1ccnc(n1)N2` [Example 186, (R)-1^2-amino-4^4-((2-fluoro-6-meth-oxybenzyl)oxy)-9-methyl-6-oxa-3,11-diaza-2(4,2)-pyrimidina-1(1,4),4(1,3)-dibenzenacyclododecaphan-12-one], for which the IC50 was 1000 to 10000 nM at TYK2, below 10 nM at JAK3, 1000 to 10000 nM at JAK1 and 101 to 1000 nM at JAK2.
As to `CC(C)Oc1ccc2cc1COCC[C@@H](C)CNC(=O)c1ccc(c(N)c1)-c1ccnc(n1)N2` [Example 187, (R)-1^2-amino-4^4-isopropoxy-9-meth-yl-6-oxa-3,11-diaza-2(4,2)-pyri-midina-1(1,4),4(1,3)-dibenzenacyclo-dodecaphan-12-one], the IC50 at TYK2 fell in the range of 101 to 1000 nM; at JAK3, 11 to 100 nM; at JAK1 it was 101 to 1000 nM; against JAK2, 11 to 100 nM.
